Assays:
[1] = target: T1, YFP-PARP14 MD2 (Homo sapiens, UniProt Q460N5); test: Laser micro-irradiation assay, recruitment of YFP-PARP14 MD2 to DNA damage sites; format: cell-based; details: U-2 OS cells
T1 sequence (Q460N5 1003-1190 limits assumed): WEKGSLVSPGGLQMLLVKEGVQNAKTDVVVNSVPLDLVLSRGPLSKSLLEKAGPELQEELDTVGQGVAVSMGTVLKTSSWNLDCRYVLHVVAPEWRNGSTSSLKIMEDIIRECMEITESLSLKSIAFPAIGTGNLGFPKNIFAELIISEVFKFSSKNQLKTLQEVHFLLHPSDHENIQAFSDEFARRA

[2] = target: T2, PARP14 MD2 (Homo sapiens, UniProt Q460N5); test: Isothermal titration calorimetry; format: binding; details: negative control, Figure 1D
T2 sequence (Q460N5 994-1191): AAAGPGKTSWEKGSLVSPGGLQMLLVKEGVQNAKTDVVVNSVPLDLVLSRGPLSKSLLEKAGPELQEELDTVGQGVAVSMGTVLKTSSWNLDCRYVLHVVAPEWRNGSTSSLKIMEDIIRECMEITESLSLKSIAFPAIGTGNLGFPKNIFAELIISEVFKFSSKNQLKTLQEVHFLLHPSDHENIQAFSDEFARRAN

binding to PARP14 MD2 [2]	SMILES	PARP14 MD2 recruitment to laser-induced DNA damage sites ([1]; 10 µM, pre-treated 1 hour)	PARP14 MD2 recruitment to laser-induced DNA damage sites ([1]; negative control, concentration not given)
	O=C(c1cc(Cc2n[nH]c(=O)c3ccccc23)ccc1F)N1CCN(C(=O)C2CC2)CC1 [Olaparib, reference compound]	recruitment of the macrodomain could not be detected	
did not bind	CC(=O)Nc1ccncc1-c1cccc2c1[nH]c1ccccc12 [MnK2-68]		did not interfere with PARP14 MD2 recruitment

— PMC6089342 (ACS chemical biology, 2017)
